Test results reported in patent US9629942B2, “Limus-coated medical devices” (Innora GmbH, priority 2010, dated 2017).

Assays:
neointimal proliferation = assay: Inhibition of neointimal proliferation; type: in vivo; settings: BHT without sirolimus, at the dose level applied
[1] = Stability of sirolimus on a balloon catheter; type: physicochemical; settings: at the dose level applied
Description: Balloons for percutaneous transluminal coronary angioplasty (Cordis Fire Star catheters, Cordis Corp., USA) were coated either with sirolimus alone or combined with different amounts of BHT. Coated balloons were tested in respect of sirolimus loss during the passage through a hemostatic valve, Medtronic Launcher JL 3.5 6F guiding catheter, and one minute in stirred blood (37° C.).

Cc1cc(C(C)(C)C)c(O)c(C(C)(C)C)c1 [BHT, butylated hydroxytoluene]
Inhibition of neointimal proliferation (neointimal proliferation): does not inhibit neointimal proliferation | Effect of BHT on stability of sirolimus on a balloon catheter [1]: does not significantly increase the stability of sirolimus
